# Data from patent US6469120B1, “Water-stabilized organosilane compounds and methods for using the same” (BioShield Technologies, Inc., priority 1997, dated 2002).
# Experiments:
# [1] = no stabilizer; cited from earlier work
# [2] = Stabilization of aqueous Dow Corning 5772 siloxane solutions by polyols, clarity monitored over time; assay type: physicochemical
# Method: However, those skilled in the art will recognize that for practicality and commercial applications, the longer the period for which a stable composition can be achieved the better. Accordingly, a stock of solutions of known concentrations of the stabilizer is prepared in deionized water. A known amount of the solution, and in some cases additional deionized water and the siloxane were mixed in a vial. The vial was sealed with parafilm to prevent evaporation, and stored at ambient temperature.
# [3] = 5% siloxane solution with 0.94% to 19% polyol, ambient temperature
compound,measurement,setting,value
CCCCCCCCCCCCCCCCCC[N+](C)(C)CCC[Si](OC)(OC)OC.[Cl-] [3-(trimethoxysilyl)propyl-dimethyloctadecyl ammonium chloride],time until mixture with water begins to lose effectiveness,[1],four to eight
O=C(OC[C@H]1O[C@@H](OC(=O)c2cc(O)c(O)c(OC(=O)c3cc(O)c(O)c(O)c3)c2)[C@H](OC(=O)c2cc(O)c(O)c(OC(=O)c3cc(O)c(O)c(O)c3)c2)[C@@H](OC(=O)c2cc(O)c(O)c(OC(=O)c3cc(O)c(O)c(O)c3)c2)[C@@H]1OC(=O)c1cc(O)c(O)c(OC(=O)c2cc(O)c(O)c(O)c2)c1)c1cc(O)c(O)c(OC(=O)c2cc(O)c(O)c(O)c2)c1 [tannic acid],stabilization of siloxane solution,[2]; tannic acid siloxane solution,not stabilized to any significant degree
OC[C@H]1O[C@@](CO)(O[C@H]2O[C@H](CO)[C@@H](O)[C@H](O)[C@H]2O)[C@@H](O)[C@@H]1O [sucrose],time solution remained clear,[2]; [3],at least seven
same,time solution remained clear,[2]; another sample at approximately 5% active siloxane,at least eight
OC[C@@H](O)[C@@H](O)[C@H](O)[C@H](O)CO [mannitol],time solution remained clear,[2]; [3],seven
same,solubility of polyol in the siloxane solution,"[2]; high mannitol concentration, 5% siloxane solution",not completely soluble
O=CC=O [glyoxal],time solution remained clear,"[2]; 9% siloxane with 4.1% to 18% glyoxal, aqueous",at least three
O=C1O[C@H]([C@@H](O)CO)C(O)=C1O [L-ascorbic acid],time solution remained clear,[2]; 10% siloxane solution with 0.85% to 17% L-ascorbic acid,at least five
same,clarity of solution after two days,[2]; as much as 18% siloxane with as little as 0.79% L-ascorbic acid,remained clear
